Paper PMC9258905, “Discovery of Quercetin and Its Analogs as Potent OXA-48 Beta-Lactamase Inhibitors” (Frontiers in Pharmacology, 2022)
Where two headings read alike, the source gives them in different places. Blank lines part the entries; values can stand above or below the molecule they belong to.

Columns and labels:
OXA-48 [1] = target: T1, OXA-48 (Klebsiella pneumoniae, UniProt Q6XEC0); experiment: Enzyme inhibition assay against purified OXA-48 with nitrocefin as substrate; assay type: biochemical; details: for percent inhibition against OXA-48 / inhibition at 50 µM: nitrocefin substrate; for percent inhibition against OXA-48: 50 µM
T1 construct: made in house; host or cells: E. coli BL21(DE3)
Experimental: The inhibitory activity of compounds against the purified OXA-48 was tested on a BioTek HTS reader. The reactions were conducted in 0.1 M phosphate buffer (pH 7.0) supplemented with 50 mM NaHCO3 at 25°C with a final assay volume of 100 μL. The concentrations of enzyme and substrate were 12 nM and 200 μM, respectively. The initial reaction rates in the absence and presence of the compound were monitored at 495 nm in triplicate. The inhibitor concentration causing a 50% decrease in enzyme activity (IC50) was determined by plotting the percent inhibition against the log10 of the inhibitor concentration and fitting the data in a dose–response-inhibition model using GraphPad Prism 7.0.
Quercetin is a member of the flavonoid class with diverse structures obtained from nature, some of which have been used for the treatment of infectious diseases in traditional medical systems ([Farhadi et al., 2019]). To investigate whether quercetin and other flavonoids are OXA-48 inhibitors, the enzyme inhibition assays were conducted on a BioTek HTS reader using nitrocefin as a substrate. The concentrations of enzyme and substrate were 12 nM and 200 μM, respectively. The initial hydrolysis rate of nitrocefin was monitored at 495 nm. The percentage inhibition is defined as the enzyme activity in the absence of inhibitor (100%) minus the remaining activity in the presence of inhibitor.

[2] = tested on: E.coli BW25113 ∆acrA∆bamB (OXA-48); assay type: cell-based; details: for reduction in the piperacillin MIC: compound at 64 μg/mL
Experimental: (§1) The recombinant plasmid containing the Pbla promoter and OXA-48 constructed above was then transformed into BW25113, BW25113 ∆acrA, BW25113 ∆bamB, and BW25113 ∆acrA∆bamB. The above strains were used to study the minimum inhibitory concentration (MIC). Antibiotic susceptibility tests were performed by the microdilution method following Clinical and Laboratory Standards Institute (CLSI) criteria ([CLSI, 2015]). Four E. coli strains expressing OXA-48 were used to assess the inhibitors. The susceptibility to piperacillin/imipenem combined with the compound at a concentration of 16 or 64 μg/mL was determined. […] Each measurement was conducted in triplicate. The fractional inhibitory concentration index (FICI) was determined according to the following formula: FICI = MIC (QT) in combination/MIC (QT) alone + MIC (PIP) in combination/MIC (PIP) alone. The drug interactions are defined as synergistic if the FICI is ≤0.5, indifferent if the FICI is >0.5 and ≤4.0, and antagonistic if the FICI is >4.0.
(§2) To investigate whether the compounds could restore the antimicrobial activity of β-lactam, the MICs of β-lactam antibiotics against resistant Gram-negative bacteria in the absence and presence of compounds (fisetin, 3′,4′,7-trihydroxyflavone, luteolin or quercetin) were determined by using published guidelines described by CLSI ([CLSI, 2015]). Specifically, we used OXA-48 producing strains E. coli BW25113, BW25113 ∆acrA, BW25113 ∆bamB, and BW25113 ∆acrA∆bamB as resistant Gram-negative bacteria. […] Imipenem, a carbapenem antibiotic, was applied at increasing concentrations ranging from 0.03 μg/mL to 4 μg/mL. The compounds were tested at 64 and 16 μg/mL.

E.coli BW25113 (OXA-48) = assay type: cell-based
Experimental: as §1, §2

[3] = tested on: E.coli BW25113 ∆acrA (OXA-48); assay type: cell-based
Experimental: as §1, §2

[4] = tested on: E.coli BW25113 ∆bamB (OXA-48); assay type: cell-based
Experimental: as §1, §2

OXA-48 [5] = target: T1, OXA-48; experiment: Inhibition kinetics (Lineweaver-Burk plots) of OXA-48-catalyzed nitrocefin hydrolysis; assay type: biochemical
Experimental: The inhibition mode of quercetin and the inhibition constant (K i) were determined using a Lineweaver–Burk plot by fitting the initial rate versus the substrate concentration at each inhibitor concentration using SigmaPlot 12.0. The nitrocefin concentrations were 25, 50, 75, and 100 μM, respectively. The initial velocity was determined by measuring the […] as described above. All reaction rates were determined in triplicate.
To determine the inhibition mode of the flavonoids, the inhibition kinetics of quercetin, fisetin and luteolin against OXA-48 in the presence of different concentrations of substrate were determined, and the inhibition modes were determined by generating Lineweaver-Burk plots.

mice = details: ref Ardeshir et al., 2018; cited from earlier work
[6] = tested on: E. coli BW25113 ∆acrA∆bamB (OXA-48); experiment: Mouse systemic infection model; assay type: in vivo, Kunming mice; details: 10 mg/kg each, intravenous, 1 h post infection; organs 24 h post-infection; vs untreated group
KPC-2 = tested on: KPC-2; set-up: method as in Papp-Wallace et al., 2010; details: for KPC-2; ref Papp-Wallace et al., 2010; cited from earlier work
[7] = read-out: percent inhibition against OXA-48, at 50 μM compound
[8] = purified OXA-48 12 nM, nitrocefin 200 μM, 0.1 M phosphate buffer pH 7.0, 50 mM NaHCO3, 25°C, read-out: IC50 against OXA-48

T1 sequence (Q6XEC0 23-265 limits assumed): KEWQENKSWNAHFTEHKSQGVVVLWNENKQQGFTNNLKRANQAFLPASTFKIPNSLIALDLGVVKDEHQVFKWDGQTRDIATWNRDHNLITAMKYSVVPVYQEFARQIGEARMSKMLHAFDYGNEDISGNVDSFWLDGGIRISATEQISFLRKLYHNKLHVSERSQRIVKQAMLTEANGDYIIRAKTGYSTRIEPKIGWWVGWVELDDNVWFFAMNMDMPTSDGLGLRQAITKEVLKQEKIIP

Structure (SMILES): O=c1cc(-c2ccc(O)c(O)c2)oc2cc(O)ccc12 [3′,4′,7-trihydroxyflavone]
IC50 (OXA-48 [1]): 1.89 ± 0.11 µM | percent inhibition against OXA-48 (OXA-48 [1]; at 50 μM compound): more than 50% | percent inhibition against OXA-48 (OXA-48 [1]; at 50 μM compound, listed as 3',4',7-trihydroxyflavone): 80% | reduction in the piperacillin MIC [2]: 8 fold

Structure (SMILES): O=c1cc(-c2ccc(O)cc2)oc2cc(O)cc(O)c12 [Apigenin]
IC50 (OXA-48 [1]): 3.64 ± 0.24 µM | percent inhibition against OXA-48 (OXA-48 [1]; at 50 μM compound): 77% | percent inhibition against OXA-48 (OXA-48 [1]; at 50 μM compound, listed as apigenin): more than 50%

Structure (SMILES): O=C(O)[C@H]1O[C@@H](Oc2cc3oc(-c4ccccc4)cc(=O)c3c(O)c2O)[C@H](O)[C@@H](O)[C@@H]1O [Baicalin]
inhibition at 50 µM (OXA-48 [1]; [7]): 25%

Structure (SMILES): O=c1cc(-c2ccccc2)oc2cc(O)cc(O)c12 [Chrysin]
IC50 (OXA-48 [1]): 108 ± 11 µM | percent inhibition against OXA-48 (OXA-48 [1]; at 50 μM compound): 8% | percent inhibition against OXA-48 (OXA-48 [1]; at 50 μM compound, listed as chrysin): less than 20%

percent inhibition against OXA-48 (OXA-48 [1]; at 50 μM compound): 11% | inhibition at 50 µM (OXA-48 [1]; [7]): < 20%
Structure (SMILES): COc1ccc(-c2cc(=O)c3c(O)cc(O[C@@H]4O[C@H](CO[C@@H]5O[C@@H](C)[C@H](O)[C@@H](O)[C@H]5O)[C@@H](O)[C@H](O)[C@H]4O)cc3o2)cc1O [Diosmin]

Structure (SMILES): O=c1c(O)c(-c2ccccc2)oc2cc(O)cc(O)c12 [Galangin]
IC50 (OXA-48 [1]): 216 ± 15 µM | percent inhibition against OXA-48 (OXA-48 [1]; at 50 μM compound): 3% | percent inhibition against OXA-48 (OXA-48 [1]; at 50 μM compound, listed as galangin): less than 20%

Structure (SMILES): COc1ccc(-c2oc3c(CC=C(C)C)c(O[C@@H]4O[C@H](CO)[C@@H](O)[C@H](O)[C@H]4O)cc(O)c3c(=O)c2O[C@@H]2O[C@@H](C)[C@H](O)[C@@H](O)[C@H]2O)cc1 [Icariin]
percent inhibition against OXA-48 (OXA-48 [1]; at 50 μM compound): 0.3% | percent inhibition against OXA-48 (OXA-48 [1]; at 50 μM compound, listed as icarlin): less than 20%

Structure (SMILES): C[C@@H](O)[C@H]1C(=O)N2C(C(=O)O)=C(SCCN=CN)C[C@H]12 [Imipenem]
Antibiotic MIC (E.coli BW25113 (OXA-48); inhibitor at 16 mg/L): 4 µg/mL | Antibiotic MIC (E.coli BW25113 (OXA-48); inhibitor at 64 mg/L): 4 µg/mL | Antibiotic MIC ([3]; inhibitor at 16 mg/L): 4 µg/mL | Antibiotic MIC ([3]; inhibitor at 64 mg/L): 4 µg/mL | Antibiotic MIC ([2]; inhibitor at 16 mg/L): 4 µg/mL | Antibiotic MIC ([2]; inhibitor at 64 mg/L): 4 µg/mL | Antibiotic MIC ([4]; inhibitor at 16 mg/L): 4 µg/mL | Antibiotic MIC ([4]; inhibitor at 64 mg/L): 4 µg/mL

Structure (SMILES): O=c1c(O[C@@H]2O[C@H](CO)[C@@H](O)[C@H](O)[C@H]2O)c(-c2ccc(O)c(O)c2)oc2cc(O)cc(O)c12 [Isoquercitrin]
percent inhibition against OXA-48 (OXA-48 [1]; at 50 μM compound): 61% | IC50 (OXA-48 [1]; [8]): 11.5 ± 1.22 µM | inhibition at 50 µM (OXA-48 [1]; [7]): > 50%

Structure (SMILES): O=c1c(O)c(-c2ccc(O)cc2)oc2cc(O)cc(O)c12 [Kaempferol]
IC50 (OXA-48 [1]): 4.54 ± 0.05 µM | percent inhibition against OXA-48 (OXA-48 [1]; at 50 μM compound): 76% | percent inhibition against OXA-48 (OXA-48 [1]; at 50 μM compound, listed as kaempferol): more than 50%

Structure (SMILES): O=c1cc(-c2ccc(O)c(O)c2)oc2cc(O)cc(O)c12 [Luteolin]
percent inhibition against OXA-48 (OXA-48 [1]; at 50 μM compound): 81% | percent inhibition against OXA-48 (OXA-48 [1]; at 50 μM compound, listed as luteolin): more than 50% | IC50 (OXA-48 [1]; [8]): 0.55 ± 0.02 µM | inhibition mode (OXA-48 [5]; Lineweaver-Burk plots, Km unchanged, Vmax decreased): noncompetitively inhibited | Ki (OXA-48 [5]; nitrocefin 25, 50, 75, 100 μM, Lineweaver-Burk): 0.82 ± 0.05 µM | reduction in the piperacillin MIC [2]: 4 fold | MIC decrease for imipenem ([2]; compound at a dose of 64 μg/mL): 2 fold | LD50 (mice): 150 mg/kg

Structure (SMILES): O=C1C[C@@H](c2ccc(O)cc2)Oc2cc(O)cc(O)c21 [Naringenin]
IC50 (OXA-48 [1]): 68.1 ± 4.12 µM | inhibition at 50 µM (OXA-48 [1]; at 50 μM compound, read-out: percent inhibition against OXA-48): 27%

Structure (SMILES): CCN1CCN(C(=O)N[C@@H](C(=O)N[C@@H]2C(=O)N3[C@@H]2SC(C)(C)[C@@H]3C(=O)O)c2ccccc2)C(=O)C1=O [Piperacillin]
Antibiotic MIC (E.coli BW25113 (OXA-48); inhibitor at 16 mg/L): 4096 µg/mL | Antibiotic MIC (E.coli BW25113 (OXA-48); inhibitor at 64 mg/L): 4096 µg/mL | Antibiotic MIC ([3]; inhibitor at 16 mg/L): 4096 µg/mL | Antibiotic MIC ([3]; inhibitor at 64 mg/L): 4096 µg/mL | increase in the piperacillin susceptibility ([2]; codeletion of bamB and acrA vs wild type): 8 fold | Antibiotic MIC ([2]; inhibitor at 16 mg/L): 512 µg/mL | Antibiotic MIC ([2]; inhibitor at 64 mg/L): 512 µg/mL | increase in the piperacillin susceptibility ([4]; deletion of bamB alone vs wild type): 4 fold | Antibiotic MIC ([4]; inhibitor at 16 mg/L): 1024 µg/mL | Antibiotic MIC ([4]; inhibitor at 64 mg/L): 1024 µg/mL | bacterial load in spleen and liver [6]: did not show a significant reduction of bacterial load

Structure (SMILES): C[C@@H]1O[C@@H](OC[C@H]2O[C@@H](Oc3c(-c4ccc(O)c(O)c4)oc4cc(O)cc(O)c4c3=O)[C@H](O)[C@@H](O)[C@@H]2O)[C@H](O)[C@H](O)[C@H]1O [Rutin]
percent inhibition against OXA-48 (OXA-48 [1]; at 50 μM compound): 9% | inhibitory activity against OXA-48 (in words) (OXA-48 [1]; larger group at position 3): no inhibitory activity

Structure (SMILES): COc1ccc(-c2cc(=O)c3c(OC)c(OC)c(OC)c(OC)c3o2)cc1 [Tangeretin]
inhibition at 50 µM (OXA-48 [1]; [7]): 7%

Structure (SMILES): O=C1c2c(O)cc(O)cc2OC(c2ccc(O)c(O)c2)C1O (centres unmarked) [Taxifolin]
IC50 (OXA-48 [1]): 3.22 ± 0.23 µM | percent inhibition against OXA-48 (OXA-48 [1]; at 50 μM compound): 76%

Structure (SMILES): O=C(O)[C@H]1/C(=C/CO)O[C@@H]2CC(=O)N21 [clavulanic acid]
partition ratio (KPC-2): 2,500
